Assay results as given in US20240263127A1, “CRYOPROTECTIVE COMPOSITIONS AND USES THEREOF” (DUPONT NUTRITION BIOSCIENCES APS, priority 2010, published 2024).
Where two headings read alike, the source gives them in different places.

How the values were obtained:
[1] = system: Lactobacillus acidophilus; assay type: cell-based; conditions: for Viable cell counts after accelerated stability test: L. acidophilus; for Recovery of viable cell after accelerated stability test: Lactobacillus acidophilus, 14 days
Procedure: (§1) The cell count of the freeze dried material has been evaluated through a typical bacteria enumeration method used for lactic acid bacteria. In this method, the freeze dried bacteria were suspended into a MRS solution with a stomacher and revitalized in that solution for 30 minutes. The suspension was then successively diluted in bottles of peptone buffer and finally cultured on a MRS nutritive media for 48 to 72 hours at 38° C. under anaerobic condition. During that period, the bacteria form colonies on the nutritive media. Those colonies were counted and results were expressed as Colony Forming Units (CFU) per gram. Long term stability of freeze dried bacteria as a function of time is a critical characteristic for commercial application. The long term stability can be evaluated by accelerated stability test consisting of placing the freeze dried cells into a sealed laminated aluminum foil in a constant temperature chamber maintained at 38° C. for fourteen days. The cell count of the freeze dried material is measured before and after the exposure to elevated temperature. A recovery rate of cells is calculated by subtracting the cells measured after the accelerated stability test from the initial cells measurement and dividing the subtraction results by the initial count. The accelerated stability test recovery rate gives a relative estimate of the long term cell stability. Various cryoprotectants (see table 1) were mixed in a suspension containing, Lactobacillus acidophilus at an approximate cell count of 1E11 CFU/gr. The mixture, called stabilized concentrate, was kept at 4-8° C. for 1.5 hrs and continuously agitated before being frozen by dispensing droplets of the stabilized concentrate into liquid nitrogen. The resulting frozen droplets are called frozen pellets. The frozen pellets were freeze dried in a Virtis® freeze drier at 100 mT and a cell count measurement was performed just after freeze drying by performing an accelerated stability test. Various ratio of Inositol over Trehalose have been tested. The cryoprotectants were mixed for 1 to 3 hrs at 10-30° C. to a suspension containing Lactobacillus acidophilus at an approximate cell count of 1E11 CFU/gr. The mixture was frozen and freeze dried, and a cell count was performed just after freeze drying by performing an accelerated stability test, as disclosed in Example 1.

[2] = system: Lactobacillus acidophilus; experiment: Viable cell count after freeze drying with cryoprotectant; assay type: cell-based; conditions: for Recovery of viable cell from frozen pellets to freeze dried pellets: Example 2
Procedure: as §1, with “gram.” for “gram. Long term stability of freeze dried bacteria as a function of time is a critical characteristic for commercial application. The long term stability can be evaluated by accelerated stability test consisting of placing the freeze dried cells into a sealed laminated aluminum foil in a constant temperature chamber maintained at 38° C. for fourteen days. The cell count of the freeze dried material is measured before and after the exposure to elevated temperature. A recovery rate of cells is calculated by subtracting the cells measured after the accelerated stability test from the initial cells measurement and dividing the subtraction results by the initial count. The accelerated stability test recovery rate gives a relative estimate of the long term cell stability.”

[3] = freeze dried cells 38° C. for fourteen days, Example 1
[4] = L. acidophilus suspension approx. 1E11 CFU/gr, freeze dried at 100 mT, Example 1
[5] = 38° C. for fourteen days, Example 2
[6] = L. acidophilus, Example 2, Trehalose/Inositol ratios

Structure (SMILES)	Viable cell counts after accelerated stability test [1, 3] [CFU/gr]	Recovery of viable cell after accelerated stability test [1] [%]	Viable cell counts after freeze drying [2, 4] [CFU/gr]	Recovery of viable cells after accelerated stability test [1] [%]	Viable cell counts after accelerated stability test [1, 5] [CFU/gr]	Recovery of viable cell from frozen pellets to freeze dried pellets ([2]; L. acidophilus) [%]	Viable cell counts after freeze drying [2, 6] [CFU/gr]
O[C@H]1[C@H](O)[C@@H](O)[C@H](O)[C@@H](O)[C@H]1O [Inositol alone, Inositol]	1.3E+11	41.0	3.2E+11	–	–	–	–
O[C@H]1[C@H](O)[C@@H](O)[C@H](O)[C@@H](O)[C@H]1O [Trehalose 0.0 / Inositol 9.1, Inositol]	–	–	–	72.37	3.72E+11	81.2	5.14E+11
O[C@H]1[C@H](O)[C@@H](O)[C@H](O)[C@@H](O)[C@H]1O [Trehalose 0.0 / Inositol 20.0, Inositol]	–	–	–	65.41	2.42E+11	94.7	3.70E+11
OC[C@H]1O[C@H](O[C@H]2O[C@H](CO)[C@@H](O)[C@H](O)[C@H]2O)[C@H](O)[C@@H](O)[C@@H]1O [Trehalose alone experiment 1, Trehalose]	2.2E+11	29.0	7.4E+11	–	–	–	–
OC[C@H]1O[C@H](O[C@H]2O[C@H](CO)[C@@H](O)[C@H](O)[C@H]2O)[C@H](O)[C@@H](O)[C@@H]1O [Trehalose alone experiment 2, Trehalose]	2.4E+11	38.0	6.6E+11	–	–	–	–
